The values below come from patent publication US12410160B2 (Gilead Sciences, Inc., priority 2021, dated 2025).

Data set [1] has as its target T1, human OATP1B1 (Homo sapiens (Human), UniProt Q9Y6L6). Briefly: In Vitro Inhibition Assessment with Human OATP1B1 Transporter. In kind it is in vitro ADME. As to conditions: HEK293-OATP1B1 cells, probe substrate pravastatin. The gist of the method: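 Pravastatin uptake was measured by LC-MS/MS after a 5 min exposure with inhibitor, following a 15 min inhibitor preincubation, in transfected versus mock HEK293 cells. Transport activity was derived as (transfected − mock) with compound over the same difference with solvent. IC50 is the concentration halving maximal activity; final DMSO was 0.4%.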

The next data set has as its system HepG2 cells. Description: F1P Cell-Based Assay (EC50), 13C6-fructose-1-phosphate in HepG2 cells (cell culture medium or 50% human plasma). As to conditions: Homo sapiens.
Data set [2] deals with T1, human OATP1B1. Briefly: In Vitro Substrate Assessment with Human OATP1B1 Transporter. The class given is in vitro ADME. As to conditions: HEK293-OATP1B1 vs mock cells; substrate if uptake ≥2-fold of mock and decreased by ≥30% with known OATP inhibitor. The text has this:
In Vitro Substrate Assessment with Human OATP1B1 and OATP1B3 Transporters
The purpose of this assay was to assess whether test articles (TAs), were substrates for the hepatic uptake transporters organic anion transporting polypeptide (OATP) 1B1 (SLCO1B1) and 1B3 (SLCO1B3) using non-transfected (Mock) and transfected human embryonic kidney (HEK293) cells. […] On assay day, media were removed from the assay plates and cells were washed with Hanks' Balanced Salt Solution (HBSS Buffer) (Corning, Cat. #21-023-CV). Cells were preincubated with HBSS buffer with or without known OATP inhibitors for 30 minutes. […] The incubation period was 2 minutes. Cells were then washed three times with ice cold HBSS buffer and then were immediately extracted with methanol:water (70:30 v:v) containing internal standard labetolol (30 nM). The supernatants were evaporated to dryness on injection plates and reconstituted in 80% water containing 20% acetonitrile and 0.1% formic acid for analysis by liquid chromatography with tandem mass spectrometry (LC-MS-MS).
The rate of uptake into cells was determined by the following formula: Rate of uptake=(A*B)/(C*D)
• A: concentration of compound in cell lysate • B: volume of sample • C: Incubation time • D: millions of cells in sample
A TA was considered a substrate for OATP transporter if: (1) the rate of uptake in the transporter transfected cells was ≥2-fold of the rate of uptake in the mock cells; and (2) the rate of uptake in the transporter transfected cells was decreased by ≥30% in the presence of a known OATP inhibitor.

The target of a further data set is human KHK-C (Homo sapiens (Human), UniProt P50053). Description: KHK Biochemical Assay (IC50), ADP-Glo, KHK-C. To be noted: ADP-Glo; average of at least two separate assays. The gist of the method:
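ADP-Glo luminescence measured ADP made over a 4 h room-temperature reaction of ATP plus fructose, started after 30 min compound–enzyme pre-incubation. Buffer: 50 mM Hepes pH 7.4, 140 mM KCl, 5 mM MgCl2, 0.01% Triton-X. Enzyme was His-tagged, BL21 (DE3)-expressed, Ni-NTA-purified; compounds in 1:3 DMSO dilution series.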
On the technique in general: ADP-Glo first removes unused ATP, then detects ADP through luciferase.

Data set [3] concerns the target KHK-C expressed in NRK-52E cells (Homo sapiens (Human), UniProt P50053). Description: KHK-C Cell-based Assay (EC50), NRK CTG, fructose-mediated ATP-depletion.
A short description of data set [4]: pKa analysis by capillary electrophoresis (pKa PRO Analyzer, co-solvent method). The class given is physicochemical. To be noted: methanol/aqueous co-solvent buffers, co-solvent method (60% to 30% methanol buffers). The method, boiled down:
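Capillary electrophoresis by the co-solvent method, with 100 μM compound and 1% DMSO in 2 mM HCl or NaOH at 60% methanol.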

Where two headings read alike, the source gives them in different places.

T1 sequence (Q9Y6L6 whole entry): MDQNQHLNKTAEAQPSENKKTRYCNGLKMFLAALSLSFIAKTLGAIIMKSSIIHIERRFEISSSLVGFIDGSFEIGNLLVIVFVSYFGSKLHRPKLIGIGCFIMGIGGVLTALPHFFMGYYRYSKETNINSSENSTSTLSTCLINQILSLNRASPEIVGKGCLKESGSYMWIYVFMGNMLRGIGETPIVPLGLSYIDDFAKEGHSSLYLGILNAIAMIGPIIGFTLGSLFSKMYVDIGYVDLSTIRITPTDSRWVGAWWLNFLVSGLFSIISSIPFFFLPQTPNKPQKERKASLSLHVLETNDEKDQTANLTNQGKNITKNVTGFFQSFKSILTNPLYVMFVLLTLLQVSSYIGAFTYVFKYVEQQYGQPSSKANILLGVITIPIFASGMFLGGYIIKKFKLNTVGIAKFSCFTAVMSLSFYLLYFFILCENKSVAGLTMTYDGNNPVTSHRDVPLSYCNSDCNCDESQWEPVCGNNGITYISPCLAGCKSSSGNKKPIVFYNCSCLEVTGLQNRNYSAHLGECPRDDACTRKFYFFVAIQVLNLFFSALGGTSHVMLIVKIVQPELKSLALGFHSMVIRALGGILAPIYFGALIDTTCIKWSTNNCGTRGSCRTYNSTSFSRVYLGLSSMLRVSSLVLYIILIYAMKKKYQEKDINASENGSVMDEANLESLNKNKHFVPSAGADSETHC
Chain of KHK-C expressed in NRK-52E cells (P50053 whole entry): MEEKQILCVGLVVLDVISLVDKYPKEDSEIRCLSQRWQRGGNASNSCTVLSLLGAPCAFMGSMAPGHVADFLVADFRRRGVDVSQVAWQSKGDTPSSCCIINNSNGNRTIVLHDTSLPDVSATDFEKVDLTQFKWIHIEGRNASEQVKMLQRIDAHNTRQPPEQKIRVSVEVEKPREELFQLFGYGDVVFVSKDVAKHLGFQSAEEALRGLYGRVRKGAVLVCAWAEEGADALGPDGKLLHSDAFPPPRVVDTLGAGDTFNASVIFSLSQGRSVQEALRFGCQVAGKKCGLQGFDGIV
Chain of human KHK-C (P50053 whole entry): as above

One may read the IC50 as the concentration needed to halve the response being measured. The EC50 is the concentration at which the effect is half-maximal. With `C[C@H]1[C@H](O)CN1c1nc(-c2ccc3c(c2)OCCNC3=O)c2c(n1)C(F)(F)CC2` [Example 166, 8-(7,7-difluoro-2-((2S,3R)-3-hydroxy-2-methylazetidin-1-yl)-6,7-dihydro-5H-cyclopenta[d]pyrimidin-4-yl)-3,4-dihydrobenzo[f][1,4]oxazepin-5(2H)-one], the results for the IC50 against human OATP1B1 [1] and on human KHK-C were 1740 nM and 5 nM, respectively. Further, the EC50 was 47.3 nM with HepG2 cells (HepG2, HepG2 cells, 50% human plasma, read-out: F1P 50% HP EC50); 36.7 nM in the data set with HepG2 cells (HepG2, read-out: F1P 10% FBS EC50, HepG2 cells, cell culture medium (10% FBS)); 39.7 nM in data set [3]. For the same compound, at human OATP1B1 [2], the “OATP1B1 Substrate” value is “YES”.
The pKa is the negative logarithm of the acid dissociation constant. With `C[C@H]1[C@H](O)CN1c1nc2c(c(-c3cccc(S(N)(=O)=O)c3)n1)CCC2` [Example 209, 3-[2-[(2S,3R)-3-hydroxy-2-methyl-azetidin-1-yl]-6,7-dihydro-5H-cyclopenta[d]pyrimidin-4-yl]benzenesulfonamide], the IC50 against human OATP1B1 [1] was 5570 nM. Further, the pKa is 3.54 in data set [4] (pH range 1.7-11.2, read-out: 1st pKa) and 9.45 in data set [4] (pH range 1.7-11.2, read-out: 2nd pKa). In addition, at human OATP1B1 [2], the “OATP1B1 Substrate” value was “YES”. In data set [3], this compound showed a concentration for a half-maximal effect (EC50) of 249 nM.
As for `C[C@H]1CCN1c1nc(N2C[C@@H]3[C@@H](CC(=O)O)[C@@H]3C2)c2c(n1)C(F)(F)CC2` [Reference Compound 5, reference compound], the IC50 against human OATP1B1 [1] turned out to be 720 nM. For the same compound, the “OATP1B1 Substrate” value on human OATP1B1 [2] is “YES”.
The like results for `C[C@H]1CCN1c1nc(N2C[C@@H]3[C@@H](CC(=O)O)[C@@H]3C2)c2c(n1)C(F)(F)CCC2` [Reference Compound 6, reference compound] were, in that order, 960 nM and “YES”.
